Measurements published in publication PMC5352738, “Characterization of three pyranose dehydrogenase isoforms from the litter-decomposing basidiomycete Leucoagaricus meleagris (syn. Agaricus meleagris)” (Applied Microbiology and Biotechnology, 2016).

Columns and labels:
Assay type in all cases: biochemical
[1] = target: T1, AmPDH1 (Macropsalliota meleagris, UniProt Q3L245); experiment: steady-state kinetics, absorbance at […] nm; details: read-out: AmPDH1 / K m
T1 construct: gene pdh1; full-length pdh1 (602 aa precursor) in pPICZB-His6, His6-tag kept, secreted from Pichia pastoris X33; N-glycosylated monomer, ~65 kDa deglycosylated; covalent FAD

[2] = target: T1, AmPDH1; experiment: steady-state ferrocenium assay, […] nm; details: electron donor; 0.2 mM ferrocenium, 50 mM Na phosphate pH 7.5, 30 °C; read-out: AmPDH1 / K m
[3] = target: T1, AmPDH1; experiment: steady-state kinetics, absorbance at […] nm; details: electron acceptor; 25 mM D-glucose, 100 mM Na borate pH 8.5, 30 °C; read-out: AmPDH1 / K m
[4] = target: T2, AmPDH3 (Macropsalliota meleagris, UniProt Q0R4L2); experiment: steady-state kinetics, absorbance at […] nm; details: electron acceptor; 25 mM D-glucose, 100 mM Na borate pH 8.5, 30 °C; read-out: AmPDH3 / K m
T2 construct: gene pdh3; full-length pdh3 (600 aa precursor) in pPICZB-His6, His6-tag kept, secreted from Pichia pastoris X33; strongly N-glycosylated, ~65 kDa deglycosylated; standard yellow form with covalent FAD

[5] = target: T3, AmPDH2 (Macropsalliota meleagris, UniProt Q3L243); experiment: steady-state kinetics, absorbance at […] nm; details: electron acceptor; 25 mM D-glucose, 100 mM Na borate pH 8.5, 30 °C; read-out: AmPDH2 / K m
T3 construct: gene pdh2; full-length pdh2 (600 aa precursor) in pPICZB-His6, His6-tag kept, secreted from Pichia pastoris X33; N-glycosylated, ~65 kDa deglycosylated; covalent FAD
T3 sequence (Q3L243 26-600): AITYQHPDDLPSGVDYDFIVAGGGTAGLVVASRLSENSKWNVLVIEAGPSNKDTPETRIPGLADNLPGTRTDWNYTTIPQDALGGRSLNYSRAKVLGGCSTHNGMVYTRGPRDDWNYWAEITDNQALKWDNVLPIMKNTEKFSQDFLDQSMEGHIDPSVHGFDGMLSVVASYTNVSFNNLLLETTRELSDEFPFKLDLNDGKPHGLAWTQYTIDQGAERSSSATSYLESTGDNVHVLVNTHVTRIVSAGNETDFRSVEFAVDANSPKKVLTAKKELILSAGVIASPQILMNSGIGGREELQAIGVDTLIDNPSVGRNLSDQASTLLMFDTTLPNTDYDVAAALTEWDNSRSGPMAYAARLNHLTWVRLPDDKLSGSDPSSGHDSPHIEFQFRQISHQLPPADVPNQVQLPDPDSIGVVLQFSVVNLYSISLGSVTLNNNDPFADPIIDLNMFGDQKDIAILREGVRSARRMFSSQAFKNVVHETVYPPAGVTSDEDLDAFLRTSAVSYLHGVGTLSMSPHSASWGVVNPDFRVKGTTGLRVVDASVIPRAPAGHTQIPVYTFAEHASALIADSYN

T1 sequence (Q3L245 26-602): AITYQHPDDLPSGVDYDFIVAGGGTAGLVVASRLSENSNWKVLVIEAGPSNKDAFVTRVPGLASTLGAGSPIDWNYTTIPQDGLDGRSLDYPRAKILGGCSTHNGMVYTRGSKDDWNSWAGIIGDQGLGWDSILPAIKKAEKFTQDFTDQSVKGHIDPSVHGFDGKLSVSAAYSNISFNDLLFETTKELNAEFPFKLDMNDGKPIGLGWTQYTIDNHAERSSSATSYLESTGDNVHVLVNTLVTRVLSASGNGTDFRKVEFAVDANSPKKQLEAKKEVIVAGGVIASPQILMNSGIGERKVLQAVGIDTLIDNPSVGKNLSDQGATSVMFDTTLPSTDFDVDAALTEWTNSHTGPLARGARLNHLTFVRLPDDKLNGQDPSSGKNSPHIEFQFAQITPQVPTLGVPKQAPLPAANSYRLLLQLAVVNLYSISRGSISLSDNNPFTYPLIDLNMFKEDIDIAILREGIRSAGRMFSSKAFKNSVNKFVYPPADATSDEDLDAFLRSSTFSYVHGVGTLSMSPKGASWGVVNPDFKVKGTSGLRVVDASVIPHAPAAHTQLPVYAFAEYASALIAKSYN
T2 sequence (Q0R4L2 26-600): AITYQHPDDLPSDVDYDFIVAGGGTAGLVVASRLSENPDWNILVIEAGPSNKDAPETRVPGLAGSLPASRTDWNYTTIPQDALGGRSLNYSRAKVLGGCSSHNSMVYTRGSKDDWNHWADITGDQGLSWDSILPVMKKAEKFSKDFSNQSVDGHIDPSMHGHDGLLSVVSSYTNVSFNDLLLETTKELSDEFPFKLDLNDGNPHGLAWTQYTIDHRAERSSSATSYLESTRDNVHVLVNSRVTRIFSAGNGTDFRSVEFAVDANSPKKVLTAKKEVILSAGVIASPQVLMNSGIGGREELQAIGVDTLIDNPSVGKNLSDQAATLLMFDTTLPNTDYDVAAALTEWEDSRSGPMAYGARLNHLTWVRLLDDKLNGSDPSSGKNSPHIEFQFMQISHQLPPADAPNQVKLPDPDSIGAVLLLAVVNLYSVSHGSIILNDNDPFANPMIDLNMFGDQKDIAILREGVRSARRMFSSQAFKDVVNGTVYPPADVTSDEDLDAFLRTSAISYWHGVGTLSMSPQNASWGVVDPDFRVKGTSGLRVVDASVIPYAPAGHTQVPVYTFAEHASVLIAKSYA

Compound `O=C1C=CC(=O)C=C1` [1,4-benzoquinone] has a Km [1] of 1380 ± 280 µM.
For `OC[C@H]1OC(O)[C@H](O)[C@@H](O)[C@@H]1O` (stereo partly drawn) [D-glucose], the Km [2] was 820 ± 10 µM.
With `C1=CCC=C1.C1=CCC=C1.[Fe+3]` [ferrocenium cation] the Km [3] was 161 ± 38 µM, the Km [4] was 10.3 ± 0.9 µM and the Km [5] was 20.1 ± 2.3 µM.
